Data as given in patent US11298354B2, “Methods of use and pharmaceutical combinations of HDAC inhibitors with BET inhibitors” (DANA-FARBER CANCER INSTITUTE, INC., priority 2016, dated 2022).

Columns and labels:
[1] = system: lung adenocarcinomas of KP mice; assay: Immune profiling of KP tumor nodules after 4-6 weeks of treatment; assay type: in vivo, mouse
Procedure: For immune profiling, cohorts of mice were sacrificed after 4-6 weeks of treatment and tumor cell suspensions were subjected to FACS analysis. […] In addition, immune cells isolated from tumors of mice treated with indicated drugs were stimulated ex-vivo for 6 hours in the presence of golgi plug. […] Equivalent numbers of each of these populations were co-cultured for two days in the presence of tumor cell lysate.
(§1) After incubation, cells were treated with red blood cell lysis buffer and were filtered through a 70 μm cell strainer. After centrifugation, cell pellet was re-suspended in 1×PBS/2% FBS. Cells were counted, and ˜0.5-1×10^6 cells were stained for surface markers in PBS+2% FBS for 15 minutes at 4° C. Intracellular staining was performed for Foxp3, Ki67, CTLA-4, and Bcl-2, using the Foxp3 staining buffer according to the manufacturer's instructions while the cytofix/cytoperm kit (BD Bioscience) was used for intracellular cytokine staining. Briefly, cells were stained for surface markers including CD4, CD8, CD3, followed by intracellular staining with PE-conjμgated anti-IFN-γ, BV421-conj μgated anti-TNF-α, APC-conjugated IL-2, FITC-conjugated Perforin and CD107a (where indicated), or isotype-matched mAbs after permeabilization and fixation. In all stained samples, dead cells were excluded using Live/Dead Fixable dead cell staining kit (Invitrogen). Cells were acquired on the LSR Fortessa (BD Biosciences) and were analyzed with the flowjo software (Treestar).
(§2) For intracellular cytokine detection assays, immune cells from tumors of treated or control mice were obtained after ficoll gradient separation as previously described. 1×10^6 cells were cultured with PMA (50 ng) and Ionomycin (500 ng) for 6 hours at 37° C., and GolgiPlμg (BD Pharmingen) was added for the last 5 hours of culture. For equivalent assays utilizing human PBMCs, 0.5×10^6 cells were similarly stimulated prior to analysis.

[2] = system: CD3+CD4+CD25hi Treg cells from spleen of wild-type mice; assay: Mouse splenic T cells and Tregs cultured with JQ1; assay type: cell-based
Description: A combination treatment with an HDAC6 selective inhibitor and a complementary immunomodulatory agent can achieve greater levels of immune-based control of tumor growth in these NSCLC models. JQ1 was previously shown to have an anti-tumor effect in KP mice in part due to downregulation of MYC and induction of apoptosis in tumor cells. […] T cells were isolated from the spleen of wild-type mice and sorted into CD3+CD25− (T cells) or CD3+CD4+CD25hi (Treg) subsets and subsequently cultured in the presence or absence of JQ1 (1 μM). Cultures were supplemented with 100 IU/mL of recombinant IL-2. Cells were washed after two days of culture and their phenotype was evaluated by FACS. For the CSFE dilution shown in FIG. 7C, 2×10^5 CFSE-labelled purified T cells obtained from the spleen of naïve mice were co-cultured with 1.0×10^5 mitomycin C treated, T-depleted spleen cells which served as APCs. 0.5 μg of soluble anti-CD3 was then added to each well along with graded numbers of Tregs (indicated by Treg:T cell ratios).

[3] = system: lung adenocarcinomas of KP mice; assay: Long-term efficacy study in KP mice; conditions: I.P. once daily, MRI, FIG. 6 and 8A
Procedure: Tumor growth was monitored weekly by MRI.
For lung tumor induction, mice received 1×10^6 cfu cre-encoding adenovirus intranasally at 5-6 weeks of age. Tumor formation (typically 6-8 weeks post inoculation) and volume was confirmed by MRI and was quantified using the 3D-slicer software. […] All mice were maintained under specific pathogen-free conditions.
JQ1 was formulated in 10% DMSO and 90% of 10% 2-hydroxylpropyl β-cyclodextrin (Sigma), and was administrated to mice at 25 mg/kg I.P. daily. Vehicle control was prepared by diluting DMSO into the related drug vehicle. […] Depletion of relevant cell types was confirmed by flow cytometry one day after the second dose using peripheral blood obtained from the tail vein.

[4] = system: peripheral blood mononuclear cells (PBMCs) from healthy donors; assay: Healthy donor PBMCs cultured with HDAC inhibitors, FACS; assay type: cell-based, human; conditions: for percentage of CD4+FOXP3+ Tregs within PBMCs: FIG. 1C
Description: HDAC inhibition results in tumor growth arrest in immunocompetent animal models. The effects of class I and class II HDAC inhibition on leukocytes were investigated using peripheral blood mononuclear cells (PBMCs) obtained from healthy donors.

[5] = system: lung adenocarcinomas of KP and TL mice; assay: 7-day treatment of KP and TL lung adenocarcinoma mice, tumor immune profiling; assay type: in vivo, mouse
Description: Tumor-associated immune cells are important in shaping the course of tumor progression and anti-tumor immunity. The effects of an HDAC6 selective inhibitor on phenotypic and functional changes, especially in the context of tumor antigens, were investigated. Specifically, the effects of an HDAC6 selective inhibitor on immune cells infiltrating lung adenocarcinomas that spontaneously develop in fully immunocompetent genetically engineered mice harboring activating Kras^G12D mutation and concurrent p53 loss (designated as KP), or those with T790M/L858R EGFR mutations (designated TL) were studied. […] Single cell suspensions of lung tumor nodules were generated and subjected to FACS analysis to assess the proportions, phenotype and function of CD45+ immune cell subsets in the tumors isolated from both KP and TL mice.
Mice with existing adenocarcinomas were treated once daily with Compound A for seven days prior to evaluation of dissociated tumors by comprehensive multi-parameter flow cytometry. […] Such increases in the CD8:Treg ratios are often associated with enhanced anti-tumor response. […]
as §1, §2
Tumor-associated macrophages (TAMs; CD45+CD11c+CD11b^lo) and CD45+CD3+CD25^lo/− T cells were sorted into 96-well plates containing 50 μl of 1×PBS with Recombinant Ribonuclease Inhibitor (Life Technologies) isolated from tumor tissues by FACS sorting. Briefly, tumor cell suspensions were incubated with live/dead fixable dye after FcγR blocking and subsequently stained with antibodies against CD45, CD3, CD8, CD11b, and CD11c. Smart-Seq2 libraries were prepared by the Broad Technology Labs and sequenced by the Broad Genomics Platform.

[6] = system: single cell suspensions from dissociated freshly resected NSCLC tumors; assay: Dissociated NSCLC patient tumor cell cultures, FACS; assay type: cell-based, human; conditions: 2-D tumor cell cultures, FIG. 4B
Description: DMSO was used as a control.

[7] = system: CD14+ monocytes from patient PBMCs / allogeneic T cells; assay: Mixed lymphocyte reaction with drug-exposed CD14+ monocytes; conditions: monocytes cultured 24 hours with drug, 6 days co-culture, FIG. 4D
Description: For T cell proliferation assays, T cells were isolated from PBMCs by positive selection using T cell enrichment kit (Miltenyi Biotec) following the manufacturer's instructions. Cells were typically ˜90% pure. […] Cells were washed three times with RPMI+10% FBS, were counted, and were used as responder cells.

[8] = current clinical trials of hematologic cancers; cited from earlier work
[9] = system: PBMCs obtained from non-small cell lung cancer (NSCLC) patients; assay: NSCLC patient PBMCs cultured with Compound A or entinostat, FACS; conditions: for expression of CD86 on CD14+ monocytes / expression of MHC class II molecules on CD14+ monocytes: 24-hour culture, FIG. 4A; for expression of CD69 activation marker on conventional CD8+ and CD4+ T cells: patient PBMC cultures, FIG. 3A, 3B
Description: Specifically, the phenotype of CD14+CD11b+ monocytes in the peripheral blood of healthy subjects and NSCLC patients, or that of CD14-CD68+CD11b+ macrophages within disaggregated NSCLC tumors were investigated. […] Peripheral blood mononuclear cells (PBMCs) were isolated by Ficoll gradient from fresh or frozen blood samples obtained from healthy donors and consented patients under IRB-approved institutional protocols. […] Cells were then washed and were subjected to phenotypic analysis by FACS. In some experiments, these cultures were performed with purified CD14+ monocytes or CD3+ T cells after purifications from whole PBMCs.

[10] = JQ1 1 μM, two days of culture, FIG. 7B
[11] = PBMCs from healthy donors, FIG. 4C
[12] = KP and TL mice, 7 days, FIG. 5K-5M
[13] = KP and TL mice, once daily for seven days, FIG. 5A-5B

Cc1sc2c(c1C)C(c1ccc(Cl)cc1)=NC(CC(=O)OC(C)(C)C)c1nnc(C)n1-2 (stereo not drawn) [JQ1]
Treg fractions/proportions in tumors ([1]; 4-6 weeks, FIG. 9B): more substantial reduction | suppressive function of Tregs vs unexposed counterparts ([2]; CFSE dilution, FIG. 7C): less suppressive | expression levels of Foxp3 on Tregs [2, 10]: diminished expression levels | expression levels of PD-1 on Tregs [2, 10]: diminished expression levels | tumor growth [3]: moderate

O=C(NO)c1cnc(NC2(c3cccc(F)c3)CCCCC2)nc1 [Compound C, 2-((1-(3-fluorophenyl)cyclohexyl)amino)-N-hydroxypyrimidine-5-carboxamide]
percentage of CD4+FOXP3+ Tregs within PBMCs ([4]; healthy donor PBMCs, 24 hours): did not significantly impact

CN1CCc2c(c3ccccc3n2Cc2ccc(C(=O)NO)cc2)C1 [Tubastatin, Tubastatin A, reference compound]
percentage of CD4+FOXP3+ Tregs within PBMCs ([4]; healthy donor PBMCs, 24 hours): did not significantly impact

O=C(CCCCCCNC(=O)c1cnc(N(c2ccccc2)c2ccccc2Cl)nc1)NO [Compound B, 2-((2-chlorophenyl)(phenyl)amino)-N-(7-(hydroxyamino)-7-oxoheptyl)pyrimidine-5-carboxamide]
percentage of CD4+FOXP3+ Tregs within PBMCs ([4]; healthy donor PBMCs, 24 hours): reduced most significantly | activation of CD8 T cells (CD69 activation marker) ([5]; KP mice, 7 days, FIG. 5I): increased activation | expression of MHCII on tumor associated macrophages ([5]; KP mice, 7 days, FIG. 5I): increased expression

O=C(NO)c1cnc(NC2(c3ccccc3)CC2)nc1 [Compound D, N-hydroxy-2-((1-phenylcyclopropyl)amino)pyrimidine-5-carboxamide]
percentage of CD4+FOXP3+ Tregs within PBMCs ([4]; healthy donor PBMCs, 24 hours): effect was still present

O=C(CCCCCCNC(=O)c1cnc(N(c2ccccc2)c2ccccc2)nc1)NO [Compound A, 2-(diphenylamino)-N-(7-(hydroxyamino)-7-oxoheptyl)pyrimidine-5-carboxamide]
expression of CD86 on monocytes [4, 11]: increased expression | expression of MHC class II on monocytes [4, 11]: increased expression | expression of CD69 activation marker on conventional CD8+ and CD4+ T cells ([4]; healthy donor PBMC cultures, 24 hours, FIG. 3C, 3D): substantially up-regulated | percentage of CD4+FOXP3+ Tregs within PBMCs ([4]; healthy donor PBMCs, 24 hours): reduced most significantly | phospho-STAT3 expression on T cells ([4]; healthy donor PBMCs, FIG. 3E): increase | expression of CD86 on CD14-CD68+CD11b+ macrophages [6]: increased expression | expression of MHC class II on CD14-CD68+CD11b+ macrophages [6]: increased expression | MHC class II molecules on TAMs ([1]; FIG. 9G): markedly promoted the up-regulation | CD86 on TAMs ([1]; FIG. 9H): markedly promoted the up-regulation | induction of allogeneic T cell proliferative responses by exposed CD14+ monocytes [7]: superior | expression levels of CD86 on CD11c+CD11b lo tumor-associated macrophages [5, 12]: significantly elevated expression levels | expression levels of MHC class II on CD11c+CD11b lo tumor-associated macrophages [5, 12]: significantly elevated expression levels | CD4+Foxp3+ Treg cells among lymphoid cells [5, 13]: significant decreases | frequency of tumor-infiltrating CD8+ T cells [5, 13]: modest increases | genes associated with T cell activation and effector function (Cd69, Sell, Cd44, Prf1) in tumor-infiltrating T cells ([5]; KP mice, single cell RNA-Seq, vs vehicle, FIG. 5N): up-regulated | inhibitory receptor molecule expression on tumor-infiltrating T cells ([5]; PD-1, CTLA-4, TIM3, seven days, FIG. 5D-5G): no substantial phenotypic changes | secretion of IFN-γ and TNF-α by tumor-infiltrating CD8+ T cells ([5]; ex-vivo stimulation, vs vehicle, FIG. 5H): enhanced capacity to secrete | CD69 activation marker on tumor-infiltrating CD8+ T cells ([5]; seven days treatment, vs vehicle, FIG. 5H): increased expression levels | expression of genes associated with MHC class II (Cd74, H2-Aa) in TAMs ([5]; single cell RNA-Sequencing, vs control mice, FIG. 5N): higher expression | tumor growth [3]: marginal delay | safety profile [8]: favorable safety profile | expression of CD86 on CD14+ monocytes [9]: up-regulated | expression of MHC class II molecules on CD14+ monocytes [9]: up-regulated | expression of CD69 activation marker on conventional CD8+ and CD4+ T cells [9]: substantially up-regulated

Nc1ccccc1NC(=O)c1ccc(CNC(=O)OCc2cccnc2)cc1 [Entinostat, entinostat, reference compound]
percentage of CD4+FOXP3+ Tregs within PBMCs ([4]; healthy donor PBMCs, 24 hours): effect was still present | expression of CD86 on CD14+ monocytes [9]: neither addition of DMSO nor entinostat up-regulated | expression of MHC class II molecules on CD14+ monocytes [9]: neither addition of DMSO nor entinostat up-regulated | expression of CD69 activation marker on conventional CD8+ and CD4+ T cells [9]: not
